For eleven molecules, IC50 results are on record in patent US20230086702A1, “SUBSTITUTED 2-AMINO-PYRAZOLYL-[1,2,4]TRIAZOLO[1,5A]PYRIDINE DERIVATIVES AND USE THEREOF” (The Johns Hopkins University, priority 2019, published 2023).

Experiment [1] concerns the target T1, DLK (Homo sapiens, UniProt Q12852).
T1 construct: 10 nM DLK, catalytic domain, Carna Biosiences; purchased Carna Biosciences ('Carna Biosiences' [sic])
T1 sequence (Q12852 125-366 limits assumed): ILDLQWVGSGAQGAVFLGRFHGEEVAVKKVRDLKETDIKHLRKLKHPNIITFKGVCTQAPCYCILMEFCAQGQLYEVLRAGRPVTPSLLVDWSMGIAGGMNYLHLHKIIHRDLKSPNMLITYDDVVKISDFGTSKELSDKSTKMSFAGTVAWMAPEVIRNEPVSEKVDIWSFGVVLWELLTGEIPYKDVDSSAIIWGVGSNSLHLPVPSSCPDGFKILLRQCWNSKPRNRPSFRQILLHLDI
Put plainly: DLK biochemical assay (TR-FRET, MKK7 phosphorylation). As to conditions: DLK catalytic domain, MKK7 substrate, 60 μM ATP. In short, it runs like this: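 TR-FRET read-out (ratio of 665 nm acceptor to Eu donor channel) tracks MKK7 T275/S277 phosphorylation by DLK, using Eu-labelled anti-phospho-MKK7 and XL665-labelled anti-His on His-MKK7. Reactions were stopped and detected in pH 7.5 Tris buffer containing 100 mM EDTA, 100 mM NaCl, 200 mM KF and 0.01% Tween 20.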

In experiment [2] the target is T2, LZK (Homo sapiens, UniProt O43283).
T2 construct: 10 nM LZK, catalytic domain, Carna Biosiences in assay buffer; purchased Carna Biosciences ('Carna Biosiences' [sic])
T2 sequence (O43283 168-409 limits assumed): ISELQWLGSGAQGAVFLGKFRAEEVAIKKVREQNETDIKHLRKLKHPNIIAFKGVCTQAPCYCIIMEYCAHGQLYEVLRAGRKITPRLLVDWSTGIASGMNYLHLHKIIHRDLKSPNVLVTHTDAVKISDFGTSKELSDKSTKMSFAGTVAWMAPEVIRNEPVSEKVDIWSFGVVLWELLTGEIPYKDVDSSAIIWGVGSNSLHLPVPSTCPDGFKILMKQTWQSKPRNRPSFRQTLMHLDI
Nature of the experiment: LZK biochemical assay (TR-FRET, MKK7 phosphorylation). Conditions: LZK catalytic domain, MKK7 substrate, 15 μM ATP.

Usually IC50 stands for the concentration needed to halve the response being measured. A high value points to a need for much substance.

Consider `CCC(c1ccc(C(F)F)nc1)n1cc(-c2cc(C(=O)N[C@@H](C)CC)n3nc(N)nc3c2)cn1` (mixture of isomers) [Example I-92, 2-Amino-N-[(2S)-butan-2-yl]-7-(1-{1-[6-(difluoromethyl)pyridin-3-yl]propyl}-1H-pyrazol-4-yl)[1,2,4]triazolo[1,5-a]pyridine-5-carboxamide], for which the half-inhibitory concentration (IC50) in experiment [1] is 2 nM; in experiment [2] it was 3.9 nM.

As to `CC[C@H](C)NC(=O)c1cc(-c2cnn(C(c3ccccc3)C3CC(F)(F)C3)c2)cn2nc(N)nc12` (single isomer, unassigned) [Example I-33], the IC50 in experiment [1] was determined as 2.2 nM; in experiment [2], 59 nM.

`CCC(c1ccc(OCC(F)(F)F)nc1)n1cc(-c2cc(C(=O)N[C@@H](C)CC)c3nc(N)nn3c2)cn1` (mixture of isomers) [Example I-85, 2-Amino-N-[(2S)-butan-2-yl]-6-(1-{1-[6-(2,2,2-trifluoroethoxy)pyridin-3-yl]propyl}-1H-pyrazol-4-yl)[1,2,4]triazolo[1,5-a]pyridine-8-carboxamide]: the results for the IC50 in experiment [1] and in experiment [2] were 4.7 nM and 38 nM, respectively.

Take `C[C@@H](CO)NC(=O)c1cc(-c2cnn(C(c3ccc(C(F)(F)F)nc3)C3CCOCC3)c2)cn2nc(N)nc12` (single isomer, unassigned) [Example I-156, 2-Amino-N-[(25)-1-hydroxypropan-2-yl]-6-(1-{tetrahydro-2H-pyran-4-yl[6-(trifluoromethyl)pyridin-3-yl]methyl}-1H-pyrazol-4-yl)[1,2,4]triazolo[1,5-a]pyridine-8-carboxamide]: the IC50 in experiment [1] was 13 nM; in experiment [2] it was 23 nM.

`CC[C@H](C)NC(=O)c1cc(-c2cnn(C(c3ccccc3)C3(C)CC3)c2)cn2nc(N)nc12` (single isomer, unassigned) [Example I-30]: the IC50 in experiment [1] came out at 140 nM; in experiment [2], 310 nM.

Turning to `CC[C@H](C)NC(=O)c1cc(-c2cnn(C3CCC(F)(F)CC3)c2)cn2nc(N)nc12` [Example I-3], the IC50 in experiment [1] is 66 nM; in experiment [2], 12 nM.

Regarding `CCC(c1ccc(OCC(F)(F)F)nc1)n1cc(-c2cc(C(=O)N[C@H]3CCOC3)n3nc(N)nc3c2)cn1` (single isomer, unassigned) [Example I-187], the IC50 worked out at 0.8 nM in experiment [1] and 18 nM in experiment [2].

As to `CC[C@H](C)NC(=O)c1cc(-c2cnn(C(c3ccc(OCC(F)(F)F)nc3)C(C)C)c2)cc2nc(N)nn12` (single isomer, unassigned) [Example I-118], the half-maximal inhibitory concentration (IC50) in experiment [1] was 8.6 nM; in experiment [2], 29 nM.

Take `CC[C@H](C)NC(=O)c1cc(-c2cnn(C(c3ccc(C(F)(F)F)nc3)C3CCOCC3)c2)cc2nc(N)nn12` (mixture of isomers) [Example I-110, 2-Amino-N-[(2S)-butan-2-yl]-7-(1-{tetrahydro-2H-pyran-4-yl[6-(trifluoromethyl)pyridin-3-yl]methyl}-1H-pyrazol-4-yl)[1,2,4]triazolo[1,5-a]pyridine-5-carboxamide]: the figures for the IC50 in experiment [1] and in experiment [2] were 1.6 nM and 2.3 nM, respectively.

Regarding `CC(C)(CO)NC(=O)c1cc(-c2cnn(C(c3ccc(C(F)(F)F)nc3)C3CCOCC3)c2)cn2nc(N)nc12` (racemic) [Example I-166, 2-Amino-N-(1-hydroxy-2-methylpropan-2-yl)-6-(1-{tetrahydro-2H-pyran-4-yl[6-(trifluoromethyl)pyridin-3-yl]methyl}-1H-pyrazol-4-yl)[1,2,4]triazolo[1,5-a]pyridine-8-carboxamide], the half-inhibitory concentration (IC50) turned out to be 4.2 nM in experiment [1] and 20 nM in experiment [2].

On to `CCC(c1ccc(F)cn1)n1cc(-c2cc(C(=O)N[C@@H](C)CC)c3nc(N)nn3c2)cn1` (mixture of isomers) [Example I-55, 2-Amino-N-[(2S)-butan-2-yl]-6-{1-[1-(5-fluoropyridin-2-yl)propyl]-1H-pyrazol-4-yl}[1,2,4]triazolo[1,5-a]pyridine-8-carboxamide], for which the values for the IC50 in experiment [1] and in experiment [2] were 6.7 nM and 49 nM, respectively.
